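Where inhibition never reached the appropriate level, the endpoint shown equals the highest concentration tested. Otherwise, values were interpolated linearly from a five-concentration, 48-hour dose response in 96-well plates. The concentration for 50% growth inhibition is given as GI50. TGI denotes the concentration required for complete inhibition of growth.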
Assays:
Experiment in all cases: growth of human tumour cells (NCI), 48 h
COLO 205 colon = tested on: COLO 205 colon
HS 578T breast = tested on: HS 578T breast
MCF7 breast = tested on: MCF7 breast
NCI-H460 lung = tested on: NCI-H460 lung
NCI/ADR-RES ovarian = tested on: NCI/ADR-RES ovarian
RPMI-8226 leukemia = tested on: RPMI-8226 leukemia
SF-295 CNS = tested on: SF-295 CNS
SK-MEL-5 melanoma = tested on: SK-MEL-5 melanoma
SN12C renal = tested on: SN12C renal
MALME-3M melanoma = tested on: MALME-3M melanoma

Row | SMILES | TGI (COLO 205 colon) | TGI (HS 578T breast) | TGI (MCF7 breast) | TGI (NCI-H460 lung) | TGI (NCI/ADR-RES ovarian) | TGI (RPMI-8226 leukemia) | TGI (SF-295 CNS) | TGI (SK-MEL-5 melanoma) | TGI (SN12C renal) | GI50 (COLO 205 colon) | GI50 (HS 578T breast) | GI50 (MCF7 breast) | GI50 (NCI-H460 lung) | GI50 (NCI/ADR-RES ovarian) | GI50 (RPMI-8226 leukemia) | GI50 (SF-295 CNS) | GI50 (SK-MEL-5 melanoma) | GI50 (SN12C renal) | TGI (MALME-3M melanoma) | GI50 (MALME-3M melanoma)
1 | CN1C(=O)c2c(ccc3c2OCO3)C2C(O)Cc3cc4c(cc3C21)OCO4 (stereo not drawn) | 14.4 µM | > 100 µM | > 100 µM | > 100 µM | 8.28 µM | > 100 µM | 4.63 µM | > 100 µM | > 100 µM | – | – | – | – | – | – | – | – | – | – | –
2 | COc1cc2c(/C=N\N=C(N)N)c(Cl)[nH]c2cc1C | 8.82 µM | 32.6 µM | 27.5 µM | > 100 µM | 50.5 µM | 25 µM | 23.1 µM | 19 µM | 11.5 µM | 2.67 µM | 10.8 µM | 6.47 µM | 15 µM | 23.3 µM | 10.5 µM | 8.28 µM | 5.08 µM | 1.65 µM | – | –
3 | CCSc1nnc2c(-c3ccccc3)n[nH]c2n1 | > 100 µM | > 100 µM | > 100 µM | > 100 µM | > 100 µM | > 100 µM | > 100 µM | > 100 µM | – | – | – | – | – | – | – | – | – | – | – | –
4 | O=S(=O)(Nc1ncccn1)c1ccc(N=Nc2ccc(O)c3ncccc23)cc1 | > 100 µM | 13.1 µM | 29.4 µM | 17.2 µM | 51.8 µM | 25.2 µM | 12 µM | 20.7 µM | 53.4 µM | 26.2 µM | 3 µM | 5.67 µM | 3.69 µM | 5.37 µM | 3.94 µM | 2.89 µM | 6.85 µM | 6.43 µM | – | –
5 | Nc1ncnc2c1ncn2C1OC(COP(=O)(O)CP(=O)(O)O)C(O)C1O (stereo not drawn) | > 100 µM | > 100 µM | > 100 µM | – | > 100 µM | > 100 µM | > 100 µM | > 100 µM | > 100 µM | – | – | – | – | – | – | – | – | – | > 100 µM | –
6 | CC(C)(C)OC(=O)NCCNC1=CC(=O)c2nc3ccccc3c3ccnc1c23 | 34.7 µM | 73.8 µM | 24.4 µM | 43.1 µM | 74.5 µM | – | 40 µM | 23.1 µM | 55.6 µM | 12.7 µM | 25.5 µM | 7.42 µM | 15.2 µM | 23.3 µM | – | 18.2 µM | 11.1 µM | 17.7 µM | 81.8 µM | 32 µM
7 | Cc1c2cc[nH]c(=O)c2c(C)c2c1[nH]c1cc(OCCN3CCN(C)CC3)ccc12 | 2.2 µM | 9.23 µM | 6.73 µM | 1.84 µM | 16.3 µM | 5 µM | 7.76 µM | 2.44 µM | 3.31 µM | 0.353 µM | 2.01 µM | 0.577 µM | 0.418 µM | 3.37 µM | 1.63 µM | 0.788 µM | 1.18 µM | 0.389 µM | – | –
